Patent US20260137081A1, “SUBSTITUTED FURANONES AND USE THEREOF FOR AGRICULTURAL APPLICATIONS” (SOUND AGRICULTURE COMPANY, priority 2021, published 2026)

Assays:
Type in all cases: in vivo
corn = assay: Corn field trials, grain yield; settings: field trials in Illinois and Iowa; applied once in late June; vs untreated control
Experimental: The total amount of Compound 1 applied to each plot ranged from about 5 g/acre to about 20 g/acre.
Corn field trials were performed in Illinois and Iowa. In each trial, individual plots measured 10 feet by 30 feet and each treatment (application of Compound 1 or untreated control) was replicated across 4 plots in a randomized complete block design. Agronomic practices were maintained under standard commercial conditions and products used for weed, insect, and disease control. The Walnut, Illinois trial site was planted in mid-May and harvested in early October. The Richland, Iowa site was planted in late April and harvested in late September. Compound 1 was applied to both sites once in late June. Grain weight and grain moisture were measured for each plot at harvest, data is reported as bushels per acre normalized to 13% moisture content.

corn plants [1] = assay: Greenhouse foliar application, gas exchange with LI-COR 6800 (carbon assimilation, transpiration, stomatal conductance); settings: 0.8 fl. oz rate; 2 and 24 hour time points; compared to the mock
Experimental: Greenhouse application of Compound 1: Corn plants were grown in a greenhouse for 9 weeks (V5) prior to treatment. Eight plants were treated with a mock solution (formulation blank), low rate (0.8 fl. oz) or medium rate (1.7 fl. oz). The low rate and medium rate refer to the volume of the Compound 1 containing solution that is applied to 1 acre of corn plants, and roughly equates to 5 grams of Compound 1 per acre for low rate and about 10 grams of Compound 1 per acre for medium rate. The foliar blends were prepared by mixing the formula concentrations into water followed by vigorous mixing. To mimic a foliar application in a corn field (using a spray boom), a uniform coating of the entire plant was carried out (FIG. 2) using a hand-held spray bottle. Following application, the plants were separated to avoid cross contamination (aerosol drift) and allowed to dry. Measurement of carbon assimilation: Assessment of the effects of Compound 1 on photosynthesis in corn plants, tobacco plants, and soybean plants was performed using a LI-COR 6800 fluorimeter, which measured net carbon assimilation (Anet), transpiration (E) and stomatal conductance (gsw). The youngest fully expanded leaf with a fully formed ligule was used from each plant for sampling. A single sample (biological representative) consisted of averaging the readings from three technical representatives adjacent to each other on each sampled leaf. Each treatment consisted of eight biological representatives (N=8). Photobiology measurements were taken at 2 and 24 hour time points, post application.

corn plants [2] = assay: Chlorophyll fluorescence with LI-COR 6800 after foliar application; settings: for minimal fluorescence Fo / maximum fluorescence (Fm): dark-adapted; for light-adapted quantum efficiency of PSII (Fv′/Fm′): in comparison to the mock
Experimental: Greenhouse application of Compound 1: Corn plants were grown in a greenhouse for 9 weeks (V5) prior to treatment. […] The foliar blends were prepared by mixing the formula concentrations into water followed by vigorous mixing. To mimic a foliar application in a corn field (using a spray boom), a uniform coating of the entire plant was carried out (FIG. 2) using a hand-held spray bottle. Following application, the plants were separated to avoid cross contamination (aerosol drift) and allowed to dry. Measurement of chlorophyll fluorescence: Chlorophyll fluorescence measurements were determined 4 hrs and 24 hrs after treatment using a LI-COR 6800 fluorimeter (LI-COR Biosciences; Lincoln, Nebraska). Corn plants were dark-adapted 60-90 min prior to measurement and the youngest fully expanded leaf with a fully formed ligule was used for the measurement. Minimal fluorescence levels in the dark (Fo) and light (Fo′) were recorded by applying a measuring light of 12 μmol photons m^−2 s^−1. Maximum fluorescence levels in the dark (Fm) and light (Fm′) were recorded by applying a saturating pulse of light at 10,000 μmol photons m^−2 s^−1. Maximum quantum efficiency of PSII in the dark (Fv/Fm) and light (Fv′/Fm′) were calculated as (Fm−Fo/Fm) using their respective dark or light-adapted values. NPQ induction was measured after a 5 minute exposure to an actinic light source at 1,000 μmol photons m^−2 s^−1 and calculated as (Fm−Fm′/Fm′).

[3] = tested on: Corn (Syngenta Agrisure Artesian); assay: Cool Grow Procedure Two (foliar spray of DC formulation vs formulation blank)
Experimental: Corn (Syngenta Agrisure Artesian, Basel, Switzerland) seeds (n=2) were planted in 24 four inch pots containing Sunshine soil #1 (Sun Gro, Agawam, MA) mixed with ⅛ tbsp of 14-14-14 osmocote N—P—K (Bloomington Brands LLC, Bloomington, IN) slow-release fertilizer and Micromax (ICL Specialty Fertilizers) (lg/L). Pots were placed on plant holder trays (11×22 in) with three pots per tray and were set-up in a 4×4 ft Cool Grow tent (capacity: 35 one liter pots) with temperature set at 24° C. and light at 345 μmoL for 12 hours day and night. Upon emergence, one seedling was culled leaving only one plant per pot. Plants were fertilized weekly thereafter starting one week after germination with 20-20-20 NPK (1 tsp/gallon) (Bloomington Brands LLC, Bloomington, IN) applied at ˜800-1000 mL per tray.
At V2-3 stage (14 days after seeding), each plant was sprayed with 7.5 mL of the following formulations: formulation blank DC (12 plants total; Agnique® AMD 3L (N,N-dimethyl lactamide)); Compound 1 DC formulation (9.86 μL of DC formulation from Example 5 dissolved in 50 mL of water). After 90 minutes following spray treatment, photosynthetic measurements were made using Licor. Digital biomass and NDVI measurements were made 21 days after seeding by a PlantEye F600Multispectral 3D scanner (Phenospex, Netherlands) and plants were harvested at 27 days after seeding.

With `COC1=C(OC)[C@@H]([C@@H]2COC(C)(C)O2)OC1=O` [Compound 1, (5R)-5-(2,2-dimethyl-1,3-dioxolan-4-yl)-3,4-dimethoxyfuran-2(5H)-one] the Corn yield (corn) was “Increases”, the “CO2 assimilation (Anet)” value (corn plants [1]) was “elevated” and the “stomatal conductance (gsw)” value (corn plants [1]) was “elevated”. For the same compound, the “transpiration (E)” value (corn plants [1]) was “elevated”, the “light-adapted Fm′” value (corn plants [2]; 24 hrs post application) was “not higher” and the “dark-adapted quantum efficiency of PSII (Fv/Fm)” value (corn plants [2]; both rates, after 24 hrs) was “higher”. For the same compound, the “minimal fluorescence Fo” value (corn plants [2]; high rate, 4 hrs post foliar application, vs low rate and mock control) was “lower”, the “maximum fluorescence (Fm)” value (corn plants [2]; high rate, both timepoints (4 and 24 hrs)) was “higher” and the “minimal fluorescence Fo” value (corn plants [2]; low and high rates, after 24 hrs, vs mock control) was “lower compared to the mock control”. The “maximum fluorescence (Fm)” value (corn plants [2]; low rate, after 24 hrs) was “higher”, the “light-adapted quantum efficiency of PSII (Fv′/Fm′)” value (corn plants [2]; high rate, 4 hrs post application) was “higher” and the “dark-adapted quantum efficiency of PSII (Fv/Fm)” value (corn plants [2]; high rate, after 4 hrs) was “higher”. The “light-adapted quantum efficiency of PSII (Fv′/Fm′)” value (corn plants [2]; low rate, 24 hrs post application) was “higher”, the “light-adapted Fm′” value (corn plants [2]; the two rates, 4 hrs post application) was “similarly higher” and the NDVI ([3]; 21 days after seeding, formulation blank DC 0.558, p<0.05) was 0.569. The “mean shoot dry weight” value ([3]; harvest 27 days after seeding, formulation blank DC 3.16, p<0.1) was 3.62 g.
